System: IL-1β production in PMA-differentiated THP-1 cells
Experiment: IL-1β production in PMA-differentiated THP-1 cells stimulated with gramicidin (hTHP-1 assay, 2% bovine serum; Bioassays 1 and 2)
Format: cell-based, human
Conditions: Homo sapiens, THP-1; hTHP-1 assay containing 2% bovine serum; Table 12, by Example #; read-out: Average IC50 of compounds in hTHP-1 assay
Protocol: IL-1β Production in PMA-Differentiated THP-1 Cells Stimulated with Gramicidin.
Cell culture-THP-1 cells were purchased from the American Type Culture Collection and sub-cultured according to instructions from the supplier. Prior to experiments, cells were cultured in RPMI 1640 containing 10% heat inactivated FBS, penicillin (100 units/ml) and streptomycin (100 μg/ml), and maintained in log phase prior to experimental setup. Prior to the experiment THP-1 were treated with PMA (Phorbol 12-myristate 13-acetate) (10 μg/ml) for 24 hours. The day of the experiment the media was removed and attaching cells were treated with trypsin for 2 minutes, cells were then collected, washed with PBS (phosphate buffer saline), spin down, resuspended in 2% heat inactivated FBS with RPMI at a concentration of 1×10^6 cells/ml, and 100 ul was plated in a 96 well plate. Cells were incubated with compounds for 1 hours and then stimulated with Gramicidin (5 μM) (Enzo) for 2 hours. Cell free supernatant was collected and the production of IL-1β was evaluated by ELISA. Compounds were dissolved in dimethyl sulfoxide (DMSO) and added to the culture medium to achieve desired concentration (e.g. 100, 30, 10, 3, 1, 0.3 or 0.1 μM). A vehicle only control was run concurrently with each experiment. Final DMSO concentration was 1%.
THP-1 cells were purchased from the American Type Culture Collection and sub-cultured according to instructions from the supplier. Prior to experiments, cells were cultured in complete RPMI 1640 (containing 10% heat inactivated FBS, penicillin (100 units/ml) and streptomycin (100 μg/ml)), and maintained in log phase prior to experimental setup. Prior to the experiment THP-1 were treated with PMA (Phorbol 12-myristate 13-acetate) (20 ng/ml) for 16-18 hours. On the day of the experiment the media was removed and adherent cells were detached with trypsin for 5 minutes. Cells were then harvested, washed with complete RPMI 1640, spun down, resuspended in RPMI 1640 (containing 2% heat inactivated FBS, penicillin (100 units/ml) and streptomycin (100 μg/ml). The cells were plated in a 384-well plate at a density of 50,000 cells/well (final assay volume 50 μl). Compounds were dissolved in dimethyl sulfoxide (DMSO) and added to the culture medium to achieve desired concentration (e.g. 100, 33, 11, 3.7, 1.2, 0.41, 0.14, 0.046, 0.015, 0.0051, 0.0017 μM). Cells were incubated with compounds for 1 hour and then stimulated with gramicidin (5 μM) (Enzo) for 2 hours. Cell free supernatant was collected and the production of IL-10 was evaluated by HTRF (cisbio). A vehicle only control was run concurrently with each experiment. Final DMSO concentration was 0.38%.
Compounds tested with protocols 1 and 2 provided IC50 values that are within the variability of the assay.
Tables 12 and 13 show the biological activity of compounds in hTHP-1 assay containing 2% bovine serum: <1 μM=“++++”; ≥1 and <5 μM=“+++”; ≥5 and <15 μM=“++”; ≥15 and <60 μM=“+”.

Row | Structure (SMILES) | IC50 [µM]
1 | Cc1c(C(C)(C)O)csc1S(=O)(=O)NC(=O)Cc1c(C(C)C)cc(F)cc1C(C)C [Example 19, 2-(4-fluoro-2,6-diisopropylphenyl)-N-(4-(2-hydroxypropan-2-yl)-3-methylthiophen-2-ylsulfonyl)acetamide] | 1 to 5
2 | CCc1cc(F)cc(CC)c1CC(=O)NS(=O)(=O)c1ncc(C(C)(C)O)s1 [Example 86, 2-(2,6-diethyl-4-fluorophenyl)-N-(5-(2-hydroxypropan-2-yl)thiazol-2-ylsulfonyl)acetamide] | 5 to 15
3 | CC(C)c1cc(F)cc(C(C)C)c1CC(=O)NS(=O)(=O)c1ccc(C(C)(C)O)s1 [Example 13, 2-(4-fluoro-2,6-diisopropylphenyl)-N-(5-(2-hydroxypropan-2-yl)thiophen-2-ylsulfonyl)acetamide] | 1 to 5
4 | CC(C)(O)c1cnc(S(=O)(=O)NC(=O)Cc2c3c(cc4c2CCC4)CCC3)s1 [Example 3, 2-(1,2,3,5,6,7-Hexahydros-indacen-4-yl)-N-(5-(2-hydroxypropan-2-yl)thiazol-2-ylsulfonyl)acetamide] | 15 to 60
5 | CC(C)c1cc(F)cc(C(C)C)c1CC(=O)NS(=O)(=O)c1nc(C(C)(C)O)cs1 [Example 81, 2-(4-fluoro-2,6-diisopropylphenyl)-N-(4-(2-hydroxypropan-2-yl)thiazol-2-ylsulfonyl)acetamide] | 15 to 60
6 | CC(C)c1cccc(C(C)C)c1CC(=O)NS(=O)(=O)c1ccc(C(C)(C)O)cc1 [Example 21, 2-(2,6-diisopropylphenyl)-N-(4-(2-hydroxypropan-2-yl)phenylsulfonyl)acetamide] | 1 to 5
7 | CC(C)c1cc(F)cc(C(C)C)c1CC(=O)NS(=O)(=O)c1ccc(S(C)(=O)=O)cc1 [Example 58, 2-(4-fluoro-2,6-diisopropylphenyl)-N-(4-(methylsulfonyl)phenylsulfonyl)acetamide] | 1 to 5
8 | CC(C)c1cc(F)cc(C(C)C)c1CC(=O)NS(=O)(=O)c1ccc(C(C)(C)O)cc1 [Example 34, 2-(4-fluoro-2,6-diisopropylphenyl)-N-(4-(2-hydroxypropan-2-yl)phenylsulfonyl)acetamide] | 1 to 5
9 | Cc1cc(S(=O)(=O)NC(=O)Cc2c(C(C)C)cc(F)cc2C(C)C)ccc1C(C)(C)O [Example 47, 2-(4-fluoro-2,6-diisopropylphenyl)-N-(4-(2-hydroxypropan-2-yl)-3-methylphenylsulfonyl)acetamide] | 1 to 5
10 | CC(C)c1cc(F)cc(C(C)C)c1CC(=O)NS(=O)(=O)c1cc(N2CCOCC2)cc(C(C)(C)O)c1 [Example 38, 2-(4-fluoro-2,6-diisopropylphenyl)-N-(3-(2-hydroxypropan-2-yl)-5-morpholinophenylsulfonyl)acetamide] | 5 to 15
11 | CC(C)c1cc(F)cc(C(C)C)c1CC(=O)NS(=O)(=O)c1cc2ccccc2o1 [Example 41, N-(benzofuran-2-ylsulfonyl)-2-(4-fluoro-2,6-diisopropylphenyl)acetamide] | 5 to 15
12 | CC(C)c1cc(C#N)cc(C(C)C)c1CC(=O)NS(=O)(=O)c1cc(C(C)(C)O)n(-c2ccccc2)n1 [Example 65, 2-(4-cyano-2,6-diisopropylphenyl)-N-(5-(2-hydroxypropan-2-yl)-1-phenyl-1H-pyrazol-3-ylsulfonyl)acetamide] | 5 to 15
13 | CC(C)c1cc(F)cc(C(C)C)c1CC(=O)NS(=O)(=O)c1ncc(C(C)(C)O)s1 [Example 89, 2-(4-Fluoro-2,6-diisopropylphenyl)-N-(5-(2-hydroxypropan-2-yl)thiazol-2-ylsulfonyl)acetamide] | 1 to 5
14 | CC(C)c1cccc(C(C)C)c1CC(=O)NS(=O)(=O)c1cc(C(C)(C)O)cs1 [Example 8, 2-(2,6-diisopropylphenyl)-N-(4-(2-hydroxypropan-2-yl)thiophen-2-ylsulfonyl)acetamide] | < 1
15 | CC(C)c1cc(C#N)cc(C(C)C)c1CC(=O)NS(=O)(=O)c1cc(C(C)(C)O)cs1 [Example 10, 2-(4-cyano-2,6-diisopropylphenyl)-N-(4-(2-hydroxypropan-2-yl)thiophen-2-ylsulfonyl)acetamide] | < 1
16 | Cc1cc(C(C)(C)O)ccc1S(=O)(=O)NC(=O)Cc1c(C(C)C)cc(F)cc1C(C)C [Example 48, 2-(4-fluoro-2,6-diisopropylphenyl)-N-(4-(2-hydroxypropan-2-yl)-2-methylphenylsulfonyl)acetamide] | < 1
17 | CC(C)c1ccc(F)c(C(C)C)c1CC(=O)NS(=O)(=O)c1cc(C(C)(C)O)cs1 [Example 11, 2-(3-fluoro-2,6-diisopropylphenyl)-N-(4-(2-hydroxypropan-2-yl)thiophen-2-ylsulfonyl)acetamide] | < 1
18 | CC(C)c1cc(F)cc(C(C)C)c1CC(=O)NS(=O)(=O)c1ncc(C(C)CO)s1 (stereo not drawn) [Example 96, 2-(4-Fluoro-2,6-diisopropylphenyl)-N-(5-(1-hydroxypropan-2-yl)thiazol-2-ylsulfonyl)acetamide] | 5 to 15
19 | CC(C)c1cnc(S(=O)(=O)NC(=O)Cc2c(C(C)C)cc(F)cc2C(C)C)s1 [Example 84, 2-(4-fluoro-2,6-diisopropylphenyl)-N-(5-isopropylthiazol-2-ylsulfonyl)acetamide] | 5 to 15
20 | CC(C)c1ccc(F)c(C(C)C)c1CC(=O)NS(=O)(=O)c1ncc(C(C)(C)O)s1 [Example 71, 2-(3-fluoro-2,6-diisopropylphenyl)-N-(5-(2-hydroxypropan-2-yl)thiazol-2-ylsulfonyl)acetamide] | 1 to 5
21 | CC(C)c1cc(C(F)(F)F)cc(C(C)C)c1CC(=O)NS(=O)(=O)c1ncc(C(C)(C)O)s1 [Example 72, 2-(2,6-diisopropyl-4-(trifluoromethyl)phenyl)-N-(5-(2-hydroxypropan-2-yl)thiazol-2-ylsulfonyl)acetamide] | 1 to 5
22 | CC(C)c1cc(F)cc(C(C)C)c1CC(=O)NS(=O)(=O)c1cnc2ccccc2c1 [Example 40, 2-(4-fluoro-2,6-diisopropylphenyl)-N-(quinolin-3-ylsulfonyl)acetamide] | 15 to 60
23 | CC(C)c1cc(F)cc(C(C)C)c1CC(=O)NS(=O)(=O)c1ccc(C(C)(C)O)nc1 [Example 36, 2-(4-fluoro-2,6-diisopropylphenyl)-N-(6-(2-hydroxypropan-2-yl)pyridin-3-ylsulfonyl)acetamide] | 1 to 5
24 | CC(C)c1cc(F)cc(C(C)C)c1CC(=O)NS(=O)(=O)c1ncc(C(C)(C)CO)s1 [Example 4, 2-(4-Fluoro-2,6-diisopropylphenyl)-N-(5-(1-hydroxy-2-methylpropan-2-yl)thiazol-2-ylsulfonyl)acetamide] | 5 to 15
25 | CC(C)c1cc(F)cc(C(C)C)c1CC(=O)NS(=O)(=O)c1ncc(C(C)O)s1 (stereo not drawn) [Example 92, 2-(4-fluoro-2,6-diisopropylphenyl)-N-(5-(1-hydroxyethyl)thiazol-2-ylsulfonyl)acetamide] | 1 to 5
26 | CC(C)c1cc(F)cc(C(C)C)c1CC(=O)NS(=O)(=O)c1cc(Cl)cc(C(C)(C)O)c1 [Example 27, N-(3-chloro-5-(2-hydroxypropan-2-yl)phenylsulfonyl)-2-(4-fluoro-2,6-diisopropylphenyl)acetamide] | 1 to 5
27 | CC(C)c1cc(Cl)cc(C(C)C)c1CC(=O)NS(=O)(=O)c1ccn(C(C)C)n1 [Example 61, 2-(4-chloro-2,6-diisopropylphenyl)-N-(1-isopropyl-1H-pyrazol-3-ylsulfonyl)acetamide] | 5 to 15
28 | CC(C)c1cc(F)cc(C(C)C)c1CC(=O)NS(=O)(=O)c1cc(C(C)(C)O)n(-c2ccccc2)n1 [Example 64, 2-(4-fluoro-2,6-diisopropylphenyl)-N-(5-(2-hydroxypropan-2-yl)-1-phenyl-1H-pyrazol-3-ylsulfonyl)acetamide] | 1 to 5
29 | CC(C)c1cc(F)cc(C(C)C)c1CC(=O)NS(=O)(=O)c1cc(C(C)(C)O)n(C)n1 [Example 67, 2-(4-fluoro-2,6-diisopropylphenyl)-N-(5-(2-hydroxypropan-2-yl)-1-methyl-1H-pyrazol-3-ylsulfonyl)acetamide] | 1 to 5

Same assay, conditions: Homo sapiens, THP-1; hTHP-1 assay containing 2% bovine serum; Table 13, by Final Target Number; read-out: Average IC50 of compounds in hTHP-1 assay

Row | Structure (SMILES) | IC50 [µM]
30 | CC(C)c1cc(F)cc(C(C)C)c1CC(=O)NS(=O)(=O)c1ccc(CN(C)C)cc1 [Compound 214] | < 1

From patent US11447460B2, “Compounds and compositions for treating conditions associated with NLRP activity” (Novartis AG, priority 2016, dated 2022)
